Experimental data from ChEMBL document CHEMBL4400538, “Discovery of Carboline Derivatives as Potent Antifungal Agents for the Treatment of Cryptococcal Meningitis” (J Med Chem, 2019).
In brackets after ≈: the same amount, converted by molar mass. Activity calls are given as the source filed them. The rule behind the calls is not given here.

Experiments:
[1] = system: Cryptococcus neoformans; assay: Antifungal activity against Cryptococcus neoformans H99 after 48 hrs by growth curve assay; assay type: functional; details: for MIC80: var grubii H99 
[2] = system: Cryptococcus neoformans; assay: Inhibition of melanin production in Cryptococcus neoformans H99 at 2.5 ug/ml; assay type: functional, organism-based; details: var grubii H99
[3] = system: Cryptococcus neoformans; assay: Antibiofilm activity against Cryptococcus neoformans H99 at 16 ug/ml after 90 mins by XTT assay; assay type: functional, organism-based; details: var grubii H99
[4] = system: Candida parapsilosis; assay: Antifungal activity against Candida parapsilosis 5008 after 48 hrs by spectrophotometery; assay type: functional; details: Lodderomyces parapsilosis, 5008, 48 h
[5] = system: Nannizzia gypsea; assay: Antifungal activity against Microsporum gypseum MZC after 48 hrs by spectrophotometery; assay type: functional
[6] = system: Aspergillus fumigatus; assay: Antifungal activity against Aspergillus fumigatus 7544 after 48 hrs by spectrophotometery; assay type: functional; details: Aspergillus fumigatus, 7544, 48 h
[7] = Clearance in ICR mouse liver microsomes at 1 uM measured up to 45 mins in presence of NADPH by LC-MS/MS analysis; assay type: ADME, Microsome; details: 0.75 h
[8] = system: Nakaseomyces glabratus; assay: Antifungal activity against Candida glabrata 8535 after 48 hrs by spectrophotometery; assay type: functional; details: Nakaseomyces glabratus, 8535, 48 h
[9] = system: Trichophyton rubrum; assay: Antifungal activity against Trichophyton rubrum TIA after 48 hrs by spectrophotometery; assay type: functional
[10] = Solubility of the compound; assay type: physicochemical
[11] = Half life in ICR mouse liver microsomes at 1 uM measured up to 45 mins in presence of NADPH by LC-MS/MS analysis; assay type: ADME, Microsome
[12] = system: Cryptococcus gattii; assay: Antifungal activity against Cryptococcus gattii ATCC 14116 after 72 hrs by spectrophotometery; details: ATCC 14116, 72 h
[13] = system: HUVEC; assay: Cytotoxicity against human HUVEC; assay type: cell-based
[14] = system: Cryptococcus neoformans; assay: Antifungal activity against Cryptococcus neoformans H99 assessed as inhibition of microbial growth at 8 ug/ml after 12 to 48 hrs by growth curve assay; assay type: functional; details: var grubii H99, read-out: GI
[15] = Protein binding in mouse plasma; assay type: ADME, cell-free
[16] = system: Cryptococcus neoformans; assay: Inhibition of urease production in Cryptococcus neoformans H99 at 10 ug/ml; assay type: functional, organism-based; details: var grubii H99
[17] = system: Candida albicans; assay: Antifungal activity against Candida albicans 7781 after 48 hrs by spectrophotometery; assay type: functional; details: Candida albicans, 7781, 48 h
[18] = system: Candida albicans; assay: Antifungal activity against Candida albicans 0304103 after 48 hrs by spectrophotometery; assay type: functional; details: Candida albicans, 0304103, 48 h
[19] = system: Cryptococcus neoformans; assay: Antifungal activity against Cryptococcus neoformans H99 after 72 hrs by growth curve assay; assay type: functional; details: var grubii H99 
[20] = system: Cryptococcus neoformans; assay: Antifungal activity against Cryptococcus neoformans ATCC 34877 after 72 hrs by spectrophotometery; assay type: functional; details: ATCC 34877, 72 h
[21] = system: Cryptococcus neoformans; assay: Antifungal activity against Cryptococcus neoformans H99 assessed as up-regulation of CDK1 expression at 2 to 4 ug/ml after 24 hrs by Western blot analysis; assay type: functional, organism-based; details: var grubii H99
[22] = system: Cryptococcus neoformans; assay: Antifungal activity against Cryptococcus neoformans H99 assessed as fragmented nuclei at 4 ug/ml after 24 hrs by TEM analysis; assay type: functional, organism-based; details: var grubii H99
[23] = system: Cryptococcus neoformans; assay: Antifungal activity against Cryptococcus neoformans H99 assessed as cell wall collapse at 4 ug/ml after 24 hrs by TEM analysis; assay type: functional, organism-based; details: var grubii H99
[24] = system: Cryptococcus neoformans; assay: Antifungal activity against Cryptococcus neoformans H99 assessed as damaged cell membranes at 4 ug/ml after 24 hrs by TEM analysis; assay type: functional, organism-based; details: var grubii H99
[25] = system: Cryptococcus neoformans; assay: Induction of cell cycle arrest in Cryptococcus neoformans H99 assessed as accumulation at G1 phase at 4 ug/ml after 24 hrs by propidium iodide-staining based FACS analysis (reference value: 44.50%); assay type: functional, var grubii H99
[26] = system: Cryptococcus neoformans; assay: Antifungal activity against Cryptococcus neoformans H99 infected in ICR mouse assessed as reduction in brain fungal load at 20 mg/kg, po administered daily for 5 days; assay type: functional, organism-based; details: var grubii H99
[27] = system: Cryptococcus neoformans; assay: Induction of cell cycle arrest in Cryptococcus neoformans H99 assessed as accumulation at G2 phase at 4 ug/ml after 24 hrs by propidium iodide-staining based FACS analysis (reference value: 3.86%); assay type: functional, var grubii H99
[28] = system: Cryptococcus neoformans; assay: Antifungal activity against Cryptococcus neoformans H99 assessed as up-regulation of cyclin B1 expression at 2 to 4 ug/ml after 24 hrs by Western blot analysis; assay type: functional, organism-based; details: var grubii H99
[29] = system: Cryptococcus neoformans; assay: Antifungal activity against Cryptococcus neoformans H99 assessed as up-regulation of Cdc25C expression at 2 to 4 ug/ml after 24 hrs by Western blot analysis; assay type: functional, organism-based; details: var grubii H99
[30] = system: Cryptococcus neoformans; assay: Induction of cell cycle arrest in Cryptococcus neoformans H99 assessed as accumulation at S phase at 4 ug/ml after 24 hrs by propidium iodide-staining based FACS analysis (reference value: 51.64%); assay type: functional, var grubii H99
[31] = system: Cryptococcus neoformans; assay: Antibiofilm activity against Cryptococcus neoformans H99 assessed as inhibition of cellular surface hydrophobicity at 10 ug/ml incubated for 24 hrs by water-hydrocarbon two-phase assay; assay type: functional, organism-based; details: var grubii H99

c1ccc2c(c1)c1c(n2CCCNC2CCCC2)CNCC1
MIC80 [1]: 64 µg/mL (≈ 215 µM)

COc1ccc(OCCCn2c3c(c4ccccc42)CCNC3)cc1.O=C(O)C(F)(F)F
MIC80 [1]: 16 µg/mL

c1ccc2c(c1)c1c(n2CCCN2CCCCC2)CNCC1
MIC80 [1]: 64 µg/mL (≈ 215 µM)

CN(C)CCn1c2c(c3ccccc31)CCNC2
MIC80 [1]: 64 µg/mL (≈ 263 µM)

c1ccc(N2CCN(CCCn3c4c(c5ccccc53)CCNC4)CC2)cc1
MIC80 [1]: 32 µg/mL (≈ 85.4 µM)

Fc1cccc(OCCCn2c3c(c4ccccc42)CCNC3)c1.O=C(O)C(F)(F)F
MIC80 [1]: 8 µg/mL

CCOc1ccccc1NCCCn1c2c(c3ccccc31)CCNC2.O=C(O)C(F)(F)F
MIC80 [1]: 32 µg/mL

Cc1ccc2c(c1)c1c(n2CCCOc2ccc(Cl)cc2)CNCC1.O=C(O)C(F)(F)F
inhibition [2]: Active
Activity [3]: Active
MIC80 [4]: 8 µg/mL
MIC80 [5]: 8 µg/mL
MIC80 [6]: 8 µg/mL
scaled CLint [7]: 477 mL/min/kg
MIC80 [8]: 2 µg/mL
MIC80 [9]: 4 µg/mL
solubility [10]: 57.5 µg/mL
half-life at 1 µM [11]: 11 min
MIC80 [12]: 2 µg/mL
Activity [13]: Non-Toxic
Activity ([1]; var grubii H99): Dose-dependent effect
MIC80 [1]: 1 µg/mL
inhibition of growth at 8 µg/mL [14]: 100%
PPB [15]: Active
inhibition [16]: inactive
MIC80 [17]: 4 µg/mL
MIC80 [18]: 4 µg/mL
MIC80 [19]: 2 µg/mL
MIC80 [20]: 2 µg/mL

COc1ccc2c(c1)c1c(n2CCCOc2ccc(Cl)cc2)CNCC1.O=C(O)C(F)(F)F
MIC80 [1]: 4 µg/mL

CCOc1ccc(NCCCn2c3c(c4ccccc42)CCNC3)cc1.O=C(O)C(F)(F)F
MIC80 [1]: 32 µg/mL

COc1cccc(NCCCn2c3c(c4ccccc42)CCNC3)c1.O=C(O)C(F)(F)F
MIC80 [1]: 32 µg/mL

Cc1cccc2c3c(n(CCCOc4ccc(Cl)cc4)c12)CNCC3.O=C(O)C(F)(F)F
MIC80 [1]: 2 µg/mL

Clc1ccc(OCCCn2c3c(c4cc(Br)ccc42)CCNC3)cc1.O=C(O)C(F)(F)F
solubility [10]: 19.3 µg/mL
MIC80 [1]: 0.5 µg/mL

Clc1ccc(NCCCn2c3c(c4ccccc42)CCNC3)cc1.O=C(O)C(F)(F)F
MIC80 [1]: 8 µg/mL

OC(Cn1cncn1)(Cn1cncn1)c1ccc(F)cc1F [FLUCONAZOLE]
inhibition [2]: inactive
MIC80 [4]: 32 µg/mL (≈ 104 µM)
MIC80 [5]: 16 µg/mL (≈ 52.2 µM)
Activity [21]: inactive
Activity [22]: Active
MIC80 [6]: > 64 µg/mL
Activity [23]: inactive
MIC80 [8]: 4 µg/mL (≈ 13.1 µM)
MIC80 [9]: 2 µg/mL (≈ 6.53 µM)
Activity [24]: Active
Activity [25]: 50.86%
Activity [26]: Active
MIC80 [12]: 4 µg/mL (≈ 13.1 µM)
Activity [27]: 0.96%
Activity [28]: inactive
MIC80 [1]: 4 µg/mL (≈ 13.1 µM)
Activity [29]: inactive
Activity [30]: 48.17%
MIC80 [17]: 32 µg/mL (≈ 104 µM)
MIC80 [18]: > 64 µg/mL
MIC80 [19]: 2 µg/mL (≈ 6.53 µM)
Activity [31]: inactive
MIC80 [20]: 4 µg/mL (≈ 13.1 µM)

c1ccc(CN2CCN(CCCn3c4c(c5ccccc53)CCNC4)CC2)cc1
MIC80 [1]: 32 µg/mL (≈ 82.4 µM)

c1ccc2c(c1)c1c(n2CCN2CCOCC2)CNCC1
MIC80 [1]: 64 µg/mL (≈ 224 µM)

COc1cccc2c3c(n(CCCOc4ccc(Cl)cc4)c12)CNCC3.O=C(O)C(F)(F)F
MIC80 [1]: 4 µg/mL

COc1cccc(OCCCn2c3c(c4ccccc42)CCNC3)c1.O=C(O)C(F)(F)F
MIC80 [1]: 16 µg/mL

Clc1ccc(OCCCn2c3c(c4ccc(Cl)cc42)CCNC3)cc1.O=C(O)C(F)(F)F
MIC80 [1]: 2 µg/mL

Clc1ccc(OCCCn2c3c(c4c(Cl)cccc42)CCNC3)cc1.O=C(O)C(F)(F)F
MIC80 [1]: 4 µg/mL

COc1ccccc1OCCCn1c2c(c3ccccc31)CCNC2.O=C(O)C(F)(F)F
MIC80 [1]: 32 µg/mL

Brc1ccc(OCCCn2c3c(c4ccccc42)CCNC3)cc1.O=C(O)C(F)(F)F
MIC80 [1]: 4 µg/mL

Clc1ccc(OCCCn2c3c(c4ccc(Br)cc42)CCNC3)cc1.O=C(O)C(F)(F)F
MIC80 [1]: 2 µg/mL

CC1CCCN(CCCn2c3c(c4ccccc42)CCNC3)C1 (centres undefined)
MIC80 [1]: 32 µg/mL (≈ 103 µM)

Brc1cccc(OCCCn2c3c(c4ccccc42)CCNC3)c1.O=C(O)C(F)(F)F
MIC80 [1]: 4 µg/mL

Cc1ccc(NCCCn2c3c(c4ccccc42)CCNC3)cc1.O=C(O)C(F)(F)F
MIC80 [1]: 16 µg/mL

Fc1cccc2c1c1c(n2CCCOc2ccc(Cl)cc2)CNCC1.O=C(O)C(F)(F)F
MIC80 [1]: 4 µg/mL

Clc1ccccc1NCCCn1c2c(c3ccccc31)CCNC2.O=C(O)C(F)(F)F
MIC80 [1]: 8 µg/mL

Cc1ccc2c3c(n(CCCOc4ccc(Cl)cc4)c2c1)CNCC3.O=C(O)C(F)(F)F
MIC80 [1]: 2 µg/mL

COc1ccccc1N1CCN(CCCn2c3c(c4ccccc42)CCNC3)CC1
MIC80 [1]: 64 µg/mL (≈ 158 µM)
